≈ marks a conversion by molar mass, not a printed value. Where “and” joins values, the source holds several entries; their conditions need not be identical. Identical values can stand only once.
What was measured:
[1] = system: Staphylococcus aureaus CHP; assay: mice infected intraperitoneally, single dose six hours post-infection, deaths and CD50; format: in vivo; conditions: for ED50: Staphylococcus
Method: Mice are infected intraperitoneally with a standardized suspension of Staphylococcus aureaus CHP in 5% gastric mucin. The animals are randomized. Six hours post-infection a single dose of the compound indicated is administered by the route indicated. The animals are observed for a 30 day period and deaths are recorded daily. The CD50 for 14 and 30 days as determined by the method of Reed and Muench, American Journal of Hygiene (1938), for each compound is tabulated:
7-[2-(5-Acetylamino-1,3,4-thiadiazol-2-ylthio)acetamido]cephalosporanic acid is tested as described in Example 5.

Shigella flexneri 12025 = assay: agar serial dilution MIC; format: cell-based; conditions: Shigella flexneri, 12025, Example 4; read-out: MIC
Method: (§1) A stock solution of 7-[2-(4,5-dihydro-5-imino-1,3,4-thiadiazol-2-ylthio)acetamido]cephalosporanic acid as the hydrobromic acid addition salt containing 2,500 μg. of the active moiety is prepared in phosphate buffer. Two fold serial dilutions are prepared with phosphate buffer. One milliliter (ml.) quantities of each dilution are incorporated in 9 ml. seen agar in sterile Petri plates. The hardened surface is innoculated with test organisms using a Steers replicating device. The plates are incubated at 35° C. for 18 hours.
(§2) The test organisms are Bacillus subtilis (BA SU) 6633; Staphylococcus aureus (ST AU) 6538P, Smith CHP, and 3-180; Mycobacterium smegmatis (MY SM) 10143; Neisseria catarrhalis (NE CA) 8193; Pseudonomas aeruginosa (PS AE) 10145; Escherichia coli (ES CO) 9637, and 920; Escherichia intermedia (ES IN) 65-1; Salmonella paratyphi (SA PA) 11737; Enterobacter aerogenes (EN AE) 13048; Klebsiella pneumoniae (KL PN) 10031; Bordetella bronchiseptica (BO BR) 4617; Proteus vulgaris (PR VU) 6896; and Herellea species (HE SP) 9955. These organisms are grown for 18 hours in Brain heart infusion at 35° C. Prior to use the cultures are diluted 10 fold with the infusion, except in the case of Mycobacterium. The latter is grown in Emerson's broth for 5 days at 28° C. in shaker flasks and used undiluted.
(§3) Following the procedure of Example 2 but substituting the organisms listed below the same preparation of 7-[2-(4,5-dihydro-5-imino-1,3,4-thiadiazol-2-ylthio)acetamido]cephalosporanic acid (Compound A) as used in Example 3, a third sample of the same compound, prepared as described in Example 1 (Compound B) and 7-[2-(5-acetamido-1,3,4-thiadiazol-2-ylthio)acetamido]cephalosporanic acid (Compound C) are tested to obtain the results shown: […]

[2] = system: Salmonella cholera-suis 13312; assay: agar serial dilution MIC; format: cell-based
Method: as §1, §2, §3

Shigella boydii 9207 = assay: agar serial dilution MIC; format: cell-based; conditions: Example 4
Method: as §1, §2, §3

[3] = system: Serratia marcescens 13880; assay: agar serial dilution MIC; format: cell-based; conditions: Example 4
Method: as §1, §2, §3

[4] = system: Citrobacter freundii 8090; assay: agar serial dilution MIC; format: cell-based; conditions: Example 4
Method: as §1, §2, §3

[5] = system: Providencia stuartii 25825; assay: agar serial dilution MIC; format: cell-based; conditions: Example 4
Method: as §1, §2, §3

Salmonella typhi 19430 = assay: agar serial dilution MIC; format: cell-based; conditions: Salmonella enterica
Method: as §1, §2, §3

[6] = system: Salmonella enteritidis 13076; assay: agar serial dilution MIC; format: cell-based; conditions: Salmonella enterica, Example 4
Method: as §1, §2, §3

Arizona arizonae 13314 = assay: agar serial dilution MIC; format: cell-based; conditions: Salmonella enterica, 13314, Example 4
Method: as §1, §2, §3

[7] = system: Klebsiella rhinoscleromatis 13884; assay: agar serial dilution MIC; format: cell-based; conditions: Klebsiella pneumoniae, Example 4
Method: as §1, §2, §3

[8] = system: Citrobacter diversus 27156; assay: agar serial dilution MIC; format: cell-based; conditions: Citrobacter koseri, Example 4
Method: as §1, §2, §3

Edwardsiella tarda 15947 = assay: agar serial dilution MIC; format: cell-based; conditions: Edwardsiella tarda, 15947; Example 4; read-out: MIC
Method: as §1, §2, §3

[9] = system: Enterobacter cloacae 13047; assay: agar serial dilution MIC; format: cell-based; conditions: Example 4
Method: as §1, §2, §3

[10] = system: Providencia alcalifaciens 9886; assay: agar serial dilution MIC; format: cell-based; conditions: Example 4
Method: as §1, §2, §3

Serratia rubidae 27593 = assay: agar serial dilution MIC; format: cell-based; conditions: Example 4
Method: as §1, §2, §3

[11] = system: Enterobacter agglomerans 27155; assay: agar serial dilution MIC; format: cell-based; conditions: Pantoea agglomerans, 27155; Example 4; read-out: MIC
Method: as §1, §2, §3

[12] = system: Enterobacter havniae 11604; assay: agar serial dilution MIC; format: cell-based; conditions: Example 4
Method: as §1, §2, §3

[13] = system: Serratia liquefaciens 27592; assay: agar serial dilution MIC; format: cell-based; conditions: Example 4
Method: as §1, §2, §3

Shigella sonnei 11060 = assay: agar serial dilution MIC; format: cell-based; conditions: Example 4
Method: as §1, §2, §3

Klebsiella ozaenae 11296 = assay: agar serial dilution MIC; format: cell-based; conditions: Example 4, read-out: MIC
Method: as §1, §2, §3

[14] = system: Klebsiella pneumoniae 13883; assay: agar serial dilution MIC; format: cell-based; conditions: Klebsiella pneumoniae, 13883, Example 4
Method: as §1, §2, §3

Proteus mirabilis 9921 = assay: agar serial dilution MIC; format: cell-based; conditions: Example 4
Method: as §1, §2, §3

[15] = system: Acinetobacter calcoaceticus 9957; assay: agar serial dilution MIC; format: cell-based; conditions: Example 4, read-out: MIC
Method: as §1, §2, §3

[16] = sc, 336 h, subcutaneous, 14 Days, single dose, mice
[17] = sc, 720 h, subcutaneous, 30 Days, single dose, mice
[18] = subcutaneous, 50 mg/kg., 14 Days
[19] = subcutaneous, 50 mg/kg., 30 Days
[20] = subcutaneous, 100 mg/kg., 14 Days
[21] = subcutaneous, 100 mg/kg., 30 Days
[22] = subcutaneous, 200 mg/kg., 14 Days
[23] = subcutaneous, 200 mg/kg., 30 Days
[24] = subcutaneous, 400 mg/kg., 14 Days
[25] = subcutaneous, 400 mg/kg., 30 Days
[26] = subcutaneous, 14 Days, single dose, mice, 20160 min

For `Cc1nnc(SCC2=C(C(=O)O)N3C(=O)[C@@H](NC(=O)Cn4cnnn4)[C@H]3SC2)s1` [Cefazolin], the ED50 [1, 16] was 6.41 mg/kg, the ED50 [1, 17] was 7.2 mg/kg and the “Deaths / Total No. Treated” value [1, 18] was 10/10. For the same compound, the “Deaths / Total No. Treated” value [1, 19] was 10/10, the “Deaths / Total No. Treated” value [1, 20] was 10/10 and 8/10 and the “Deaths / Total No. Treated” value [1, 21] was 10/10. For the same compound, the “Deaths / Total No. Treated” value [1, 22] was 10/10, the “Deaths / Total No. Treated” value [1, 23] was 10/10 and the “Deaths / Total No. Treated” value [1, 24] was 4/10. The “Deaths / Total No. Treated” value [1, 25] was 5/10 and the CD50 [1, 26] was 5.82 mg/kg.
In the case of `CCOc1ccc2ccccc2c1C(=O)N[C@@H]1C(=O)N2[C@@H]1SC(C)(C)[C@@H]2C(=O)O` [Nafcillin], the ED50 [1, 16] is reported as 3.12 mg/kg, the ED50 [1, 17] is reported as 3.9 mg/kg and the “Deaths / Total No. Treated” value [1, 18] is reported as 9/10 and 10/10. The “Deaths / Total No. Treated” value [1, 19] was 9/10 and 10/10, the “Deaths / Total No. Treated” value [1, 20] was 9/10 and 7/10 and the “Deaths / Total No. Treated” value [1, 21] was 10/10 and 7/10. The “Deaths / Total No. Treated” value [1, 22] was 3/10 and 4/10, the “Deaths / Total No. Treated” value [1, 23] was 4/10 and the “Deaths / Total No. Treated” value [1, 24] was 3/10 and 4/10. For the same compound, the “Deaths / Total No. Treated” value [1, 25] was 4/10, the CD50 [1, 26] was 3.41 mg/kg and the CD50 ([1]; subcutaneous, 30 Days, single dose, mice, 43200 min) was 3.41 mg/kg.
In the case of `CC(=O)Nc1nnc(SCC(=O)NC2C(=O)N3C(C(=O)O)=C(COC(C)=O)CSC23)s1` (stereo not drawn) [Compound C, 7-[2-(5-acetamido-1,3,4-thiadiazol-2-ylthio)acetamido]cephalosporanic acid, reference compound], the ED50 ([1]; po, Example 6, mice) is reported as greater than 7.2 mg/kg, the “oral activity against the test organism” value ([1]; oral, Example 6, mice) is reported as “lack of significant oral activity” and the MIC (Shigella flexneri 12025) is reported as 15.6 µg/mL (≈ 32 µM). It also gave an MIC [2] of 15.6 µg/mL (≈ 32 µM), an MIC (Shigella boydii 9207) of 31.3 µg/mL (≈ 64.2 µM) and an MIC [3] greater than 250 µg/mL. The MIC [4] was greater than 250 µg/mL, the MIC [5] was 250 µg/mL (≈ 513 µM) and the MIC (Salmonella typhi 19430) was 15.6 µg/mL (≈ 32 µM). For the same compound, the MIC [6] was 31.3 µg/mL (≈ 64.2 µM), the MIC (Arizona arizonae 13314) was 31.3 µg/mL (≈ 64.2 µM) and the MIC [7] was greater than 250 µg/mL. The MIC [8] was 15.6 µg/mL (≈ 32 µM), the MIC (Edwardsiella tarda 15947) was 7.81 µg/mL (≈ 16 µM) and the MIC [9] was greater than 250 µg/mL. It also gave an MIC [10] greater than 250 µg/mL, an MIC (Serratia rubidae 27593) greater than 250 µg/mL and an MIC [11] of 7.81 µg/mL (≈ 16 µM). It also gave an MIC [12] of 250 µg/mL (≈ 513 µM), an MIC [13] greater than 250 µg/mL and an MIC (Shigella sonnei 11060) of 62.5 µg/mL (≈ 128 µM). It also gave an MIC (Klebsiella ozaenae 11296) of 7.81 µg/mL (≈ 16 µM), an MIC [14] of 62.5 µg/mL (≈ 128 µM) and an MIC (Proteus mirabilis 9921) of 15.6 µg/mL (≈ 32 µM). The MIC [15] was 250 µg/mL (≈ 513 µM).

— patent publication US3971779A, “7-[2-(5-Amino-1,3,4-thiadiazol-2-ylthio)acetamido]cephalosporins” (American Home Products Corporation, priority 1975, dated 1976)
